Results from patent US8969554B2, “6-acyl-1,2,4-triazine-3,5-dione derivative and herbicides” (Kumiai Chemical Industry Co., Ltd., priority 2010, dated 2015).

Legend:
Type in all cases: in vivo
[1] = system: Echinochloa oryzicola; experiment: Herbicidal activity by paddy field soil treatment (Test Example 1); parameters: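 index 0 to 10 in 10% steps of herbicidal effect with 10 meaning complete death and 0 below 10%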; conditions: 1000 g of effective component per hectare, evaluated on day 21 after the treatment, criteria of Table 72
How it was run: (§1)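 Paddy soil in pots sown with seeds, flooded to 3 cm; next day wettable powder diluted in water applied to water surface at 1000 g active ingredient/ha. Greenhouse-grown; herbicidal effect scored on day 21 after treatment against rating criteria.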

[2] = system: Monochoria vaginalis; experiment: as above; parameters: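 index 0 to 10 in 10% steps of herbicidal effect with 10 meaning complete death and 0 below 10%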; conditions: 1000 g of effective component per hectare, evaluated on day 21 after the treatment, criteria of Table 72
How it was run: as §1

[3] = system: Scirpus juncoides Rocxb.; experiment: as above; parameters: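 index 0 to 10 in 10% steps of herbicidal effect with 10 meaning complete death and 0 below 10%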; conditions: applied on water surface, 1000 g of effective component per hectare, day 21 after the treatment
How it was run: as §1

[4] = system: A. retroflexus; experiment: Herbicidal activity by field soil treatment (Test example 2); parameters: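 index 0 to 10 in 10% steps of herbicidal effect with 10 meaning complete death and 0 below 10%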; conditions: 1000 g effective component per hectare, day 21 after the treatment
How it was run: (§2)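 Seeds of the four weeds sown in field soil in pots; wettable powder diluted in water sprayed pre-emergence on soil surface at 1000 L/ha, giving 1000 g active per hectare. Greenhouse grown; herbicidal effect scored on day 21 after treatment by set criteria.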

[5] = system: Echinochloa crus-galli; experiment: as above; parameters: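 index 0 to 10 in 10% steps of herbicidal effect with 10 meaning complete death and 0 below 10%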; conditions: 1000 g effective component per hectare, day 21 after the treatment
How it was run: as §2

[6] = system: Indian millet; experiment: as above; parameters: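 index 0 to 10 in 10% steps of herbicidal effect with 10 meaning complete death and 0 below 10%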; conditions: 1000 g effective component per hectare, day 21 after the treatment
How it was run: as §2

[7] = system: A. retroflexus; experiment: Herbicidal activity by field foliage treatment (Test example 3); parameters: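 index 0 to 10 in 10% steps of herbicidal effect with 10 meaning complete death and 0 below 10%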; conditions: 1000 g effective component per hectare, day 14 after the treatment
How it was run: (§3)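 Field soil in pots; Indian millet and A. retroflexus grown 2 weeks in greenhouse, then sprayed over whole plant with water-diluted wettable powder at 1000 L/ha, giving 1000 g active component/ha. Herbicidal effect scored by set criteria on day 14 after treatment.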

[8] = system: Indian millet; experiment: as above; parameters: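 index 0 to 10 in 10% steps of herbicidal effect with 10 meaning complete death and 0 below 10%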; conditions: 1000 g effective component per hectare, day 14 after the treatment
How it was run: as §3

[9] = system: Echinochloa crus-galli; experiment: as above; parameters: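 index 0 to 10 in 10% steps of herbicidal effect with 10 meaning complete death and 0 below 10%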; conditions: 1000 g effective component per hectare, day 14 after the treatment
How it was run: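 Potted field-soil plants grown 2 weeks in a greenhouse were sprayed over the whole foliage with diluted wettable powder at 1000 L/ha, delivering 1000 g active ingredient per hectare. Herbicidal effect scored by visual criteria 14 days after treatment.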

[10] = system: Setaria viridis; experiment: as above; conditions: 1000 g effective component per hectare, day 14 after the treatment;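 also: index 0 to 10 in 10% steps of herbicidal effect with 10 meaning complete death and 0 below 10%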
Procedure: Test example 3 Test for Determining Herbicidal Activity by Field Foliage Treatment A 80 cm^2 wide plastic pot was filled with a field soil and seeds of each of Indian millet and A. retroflexus were sowed and then incubated for 2 weeks in a green house. The wettable powder produced with reference to the Formulation example 1 was diluted water, and applied from the air to entire body of the plant as foliage treatment by using a small sprayer in an amount of 1000 liters per hectare so that the effective component is 1000 g per hectare. After that, the plants were cultivated in a greenhouse, and on day 14 after the treatment, evaluation was made by the criteria described in Table 72 for determining the herbicidal effects.

| Structure (SMILES) | Herbicidal effects index number, Echinochloa oryzicola [1] | Herbicidal effects index number, Monochoria vaginalis [2] | herbicidal effect index, S. juncoides Rocxb. [3] | herbicidal effect index, Amaranthus retroflexus [4] | herbicidal effect index, Echinochloa crus-galli [5] | herbicidal effect index, Abutilon theophrasti [6] | herbicidal effect index, Amaranthus retroflexus [7] | herbicidal effect index, Abutilon theophrasti [8] | herbicidal effect index, Echinochloa crus-galli [9] | herbicidal effect index, Setaria viridis [10] |
| --- | --- | --- | --- | --- | --- | --- | --- | --- | --- | --- |
| CCn1c(=O)c(C(=O)C2=C(O)CCCC2=O)nn(-c2ccccn2)c1=O [I-275] | 9 | 10 | 8 | 10 | 8 | 10 | 9 | 9 | 9 | 8 |
| Cn1nc(C(=O)C2=C(O)CCCC2=O)c(=O)n(-c2ccc(C(F)(F)F)cn2)c1=O [I-187] | 10 | 10 | 10 | 10 | 7 | 9 | 10 | 9 | 8 | 8 |
| CSc1c(Cl)cc(-n2c(=O)c(C(=O)O)nn(C)c2=O)cc1Cl [V-300] | 10 | 10 | 10 | 10 | 7 | 9 | 10 | 9 | 8 | 8 |
| Cn1c(=O)c(C(=O)C2=C(O)CCCC2=O)nn(-c2ccccn2)c1=O [I-274] | 8 | 8 | 4 | 7 | 7 | 8 | 9 | 8 | 9 | 8 |
| CC(C)N(c1ccccc1)n1c(=O)c(C(=O)O)nn(C)c1=O [V-369] | 10 | 10 | 10 | 7 | 7 | 7 | 9 | 8 | 9 | 7 |
| Cn1nc(C(=O)C2=C(O)CCCC2=O)c(=O)n(-c2ccc(F)cn2)c1=O [I-184] | 10 | 10 | 10 | 10 | 8 | 10 | 10 | 9 | 10 | 8 |
| Cn1nc(C(=O)C2=C(O)CCCC2=O)c(=O)n(-c2ccc(F)cc2F)c1=O [I-78] | 10 | 10 | 10 | 10 | 10 | 10 | 10 | 10 | 10 | 10 |
| Cc1ccc(-n2c(=O)c(C(=O)C3=C(O)CCCC3=O)nn(C)c2=O)c(C)c1 [I-90] | 9 | 10 | 10 | 10 | 8 | 10 | 10 | 9 | 8 | 7 |
| COc1ccccc1-n1c(=O)c(C(=O)C2=C(O)CCCC2=O)nn(C)c1=O [I-60] | 10 | 10 | 10 | 10 | 10 | 10 | 10 | 10 | 10 | 9 |
| Cn1nc(C(=O)C2=C(O)CCCC2=O)c(=O)n(-c2cc(F)c(F)c(F)c2)c1=O [I-302] | 10 | 10 | 10 | 10 | 7 | 10 | 10 | 10 | 10 | 10 |
| CC(C)N(c1ccccc1)n1c(=O)c(C(=O)C2=C(O)CCCC2=O)nn(C)c1=O [I-475] | 10 | 10 | 10 | 7 | 7 | 7 | 9 | 8 | 9 | 7 |
| Cn1nc(C(=O)C2=C(O)CCCC2=O)c(=O)n(-c2ccsc2)c1=O [I-199] | 9 | 8 | 9 | 10 | 9 | 10 | 9 | 9 | 10 | 8 |
| Cc1ccc(Cl)cc1-n1c(=O)c(C(=O)C2=C(O)CCCC2=O)nn(C)c1=O [I-138] | 10 | 10 | 10 | 10 | 9 | 9 | 10 | 9 | 8 | 8 |
